What is called IC50 is the concentration that gives 50% inhibition. Lower therefore signals greater potency. A word on the Cmax: it is the highest concentration seen after dosing. As usually defined, the AUC(0-inf) is the area under the concentration-time curve extrapolated to infinity. Lower therefore signals less exposure. As usually defined, the AUC(0-t) is the area under the concentration-time curve up to a stated or last time point. By Tmax is commonly meant the time at which the peak concentration occurs. As usually defined, the half-life is how long it takes for the measured level to halve. Read a low half-life as rapid decline. In general, bioavailability refers to the share of a dose that reaches the circulation, judged against a reference dose that is usually intravenous. A lower bioavailability goes with poor availability.

Like-named read-outs stand apart in the source and are kept apart here.

For data set [1], the target named is T1, FLT3 kinase (Homo sapiens, UniProt P36888).
T1 sequence (P36888 27-993): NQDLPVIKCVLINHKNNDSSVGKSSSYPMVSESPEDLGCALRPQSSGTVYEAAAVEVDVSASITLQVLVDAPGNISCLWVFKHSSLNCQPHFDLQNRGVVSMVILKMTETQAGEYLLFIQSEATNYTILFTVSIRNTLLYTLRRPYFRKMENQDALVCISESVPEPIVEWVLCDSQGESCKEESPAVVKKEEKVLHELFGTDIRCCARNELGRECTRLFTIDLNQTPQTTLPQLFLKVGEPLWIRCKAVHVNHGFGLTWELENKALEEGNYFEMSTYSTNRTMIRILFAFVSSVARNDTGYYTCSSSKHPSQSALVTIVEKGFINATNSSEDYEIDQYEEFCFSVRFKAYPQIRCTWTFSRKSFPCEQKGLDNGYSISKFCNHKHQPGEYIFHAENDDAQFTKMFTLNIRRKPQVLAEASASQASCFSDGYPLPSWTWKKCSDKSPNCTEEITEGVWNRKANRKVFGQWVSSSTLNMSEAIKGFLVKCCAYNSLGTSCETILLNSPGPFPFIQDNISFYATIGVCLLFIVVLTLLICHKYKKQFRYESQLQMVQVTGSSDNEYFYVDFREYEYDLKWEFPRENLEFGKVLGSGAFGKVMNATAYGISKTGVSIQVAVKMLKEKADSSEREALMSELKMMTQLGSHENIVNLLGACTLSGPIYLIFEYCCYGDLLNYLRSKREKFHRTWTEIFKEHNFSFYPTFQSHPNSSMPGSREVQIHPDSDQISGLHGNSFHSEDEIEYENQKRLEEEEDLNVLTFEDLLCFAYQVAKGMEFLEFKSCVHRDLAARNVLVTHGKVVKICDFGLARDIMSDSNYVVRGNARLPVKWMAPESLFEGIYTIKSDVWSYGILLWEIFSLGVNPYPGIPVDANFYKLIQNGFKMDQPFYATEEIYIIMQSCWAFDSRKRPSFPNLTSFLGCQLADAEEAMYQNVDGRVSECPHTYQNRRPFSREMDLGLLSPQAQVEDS
Put plainly: In vitro enzymatic inhibitory activity (kinase reaction, FAM-labeled peptide). It counts as biochemical. The following applies: in vitro enzymatic inhibition.

Data set [2] concerns MV-4-11 cell. As to the kind of experiment: In vitro cytology inhibitory activity (MV-4-11 cell proliferation, cell viability luminescence). The format is cell-based. The following applies: Homo sapiens, MV4-11; MV-4-11 cells, 72 h incubation. As to the method:
Cell assay condition was shown below:
a. A complete medium was prepared and mixed well. b. Cell was recovered, and cell lines of between about two generations in good condition of growth were selected. c. The cell culture flasks were removed from the incubator, and the labeled cell name on the bottles, culture medium type and cell algebra were checked. d. The cell suspension was pipette into a centrifuge tube, and centrifuged at 800-1000 rpm for 3-5 minutes. e. Cell supernatant of the centrifuge tube was aspirated. f. Appropriate volume of culture medium was added into the centrifuge tube, and the cells were resuspended by gentle pipetting uniform. g. Vi-Cell XR cytometer was used for count. h. The cell suspension was adjusted to the appropriate concentration. i. The cell suspension was added to the bottom wall of the white 96-well plate, 100 microliters/well. Cells name, kind of board density and date were detailed labeled, and the culture plate was placed in CO2 incubator overnight.
2. Preparation and Addition of the Test Compounds
i) Preparation of test compound plates by diluting to 10 concentrations with DMSO: first, the test compound stock solution was prepared by dissolving a weighed compound in DMSO to a concentration of 10 mM, and then diluted to the concentration of 4 mM, which was then diluted to the concentration of 0.4 mM used as the highest concentration for testing with DMSO. The highest concentration was sequentially followed by 3-fold dilution for a total of 10 concentrations. Staurosporine was the positive control drug. ii) Addition of test compounds: a. 0.5 μL of test compound prepared above in compound plate was added into the cell culture plate that had been incubated overnight. Then the culture plate was incubated in an incubator at 37° C. for 72 hours.
3. Detection and Analysis
a. 72 hours after the compound treatment, cells was observed under an inverted microscope morphology, and cell growth state in DMSO control well was normal, there was no contamination. b. The cell culture plate was placed in equilibrium at room temperature for 30 minutes. c. The cell viability detection reagent at 100 μL/well was placed into culture plate. d. The mixture in culture plate was mixed two minutes in the vibration plate machine to induce cell lysis. e. 96-well plate was placed for 10 minutes at room temperature, making it stable luminescent signal. f. White base film was pasted on the bottom of the culture plate, and the plate was tested by using Flexstation3 (related to: light, integration time 500 ms). g. Experimental results were recorded and analyzed.

Data set [3] in a line: Evaluation of pharmacokinetic activity in male SD rats (iv and oral). It counts as in vivo. The settings on record: for Vd: read-out: Vss; for bioavailability: po 5 mg/kg vs iv 1 or 2 mg/kg. The procedure:
1. Preparation of the Test Compound Solutions
The test compound solutions were prepared using appropriate amounts of 5% DMSO, 5% KolliphorHS15 and 90% Saline to dissolve each compound completely.
140-190 g male SD rats were randomly divided into two groups. One group was administered through intravenous drug delivery with the dosage of 1.0 or 2.0 mg/kg, and the other group was administered by oral with the dosage of 5.0 mg/kg. For intravenous administration, caudal vein blood samples at the time points of 0.0833, 0.25, 0.5, 1.0, 2.0, 4.0, 6.0, 8.0 and 24 h were collected after drug administration (the time point of drug administration was set as 0 h); and for oral administration, caudal vein blood samples at the time points of 0.25, 0.5, 1.0, 2.0, 4.0, 6.0, 8.0 and 24 h were collected after drug administration (the time point of drug administration was set as 0 h). Appropriate range of standard curve was established according to the sample concentration, and the test compound concentrations in plasma sample were measured by LC-MS/MS analysis. Pharmacokinetic parameters were calculated by non-compartmental method using WinNonLin 6.3 software based on drug concentration-time curves.

Turning to `CN(C)C1CCN(CCOc2ccc(C#Cc3ccc(NC(=O)Nc4cc(C(C)(C)C)on4)cc3)cc2)CC1` [Example 14, 1-(5-(tert-Butyl)isoxazol-3-yl)-3-(4-((4-(2-(4-(dimethylamino)piperidin-1-yl)ethoxy)phenyl)ethynyl)phenyl)urea], the IC50 in data set [1] was determined as 72 nM; in data set [2], 11.4 nM.
Taken in the same sequence, the figures for `CN1CCN(CCOc2ccc(C#Cc3ccc(NC(=O)Nc4cc(C(C)(C)C)on4)cc3)cc2)CC1` [Example 12, 1-(5-(tert-Butyl)isoxazol-3-yl)-3-(4-((4-(2-(4-methylpiperazin-1-yl)ethoxy)phenyl)ethynyl)phenyl)urea] were 28 nM and 1.6 nM.
With `CC(C)(C)c1cc(NC(=O)Nc2ccc(C#Cc3ccc(OCCCN4CCOCC4)c(Cl)c3)cc2)no1` [Example 2, 1-(5-(tert-Butyl)isoxazol-3-yl)-3-(4-((3-chloro-4-(3-morpholinopropoxy)phenyl)ethynyl)phenyl) urea], in data set [1], the half-maximal inhibitory concentration (IC50) was found to be 75 nM.
Regarding `CC(C)(C)c1cc(NC(=O)Nc2ccc(C#Cc3cnn4ccc(OCCCN5CCOCC5)nc34)cc2)no1` [Example 6, 1-(5-(tert-Butyl)isoxazol-3-yl)-3-(4-((5-(3-morpholinopropoxy)pyrazolo[1,5-a]pyrimidin-3-yl)ethynyl)phenyl)urea], the 50% inhibitory concentration (IC50) turned out to be 94 nM in data set [1] and 3.1 nM in data set [2].
Taken in the same sequence, the figures for `CN1CCN(CCCOc2ccc(C#Cc3ccc(NC(=O)Nc4cc(C(C)(C)C)on4)cc3)cc2)CC1` [Example 13, 1-(5-(tert-Butyl)isoxazol-3-yl)-3-(4-((4-(3-(4-methylpiperazin-1-yl)propoxy)phenyl)ethynyl)phenyl)urea] were 23 nM and 2.4 nM.
Molecule `CC(C)(C)c1cc(NC(=O)Nc2ccc(C#Cc3ccc(OCCN4C[C@@H]5OCCO[C@@H]5C4)cc3)cc2)no1` [Example 24, 1-(5-(tert-Butyl)isoxazol-3-yl)-3-(4-((4-(2-((4aR,7aS)-tetrahydro-2H-[1,4]dioxino[2,3-c]pyrro 1-6(3H)-yl)ethoxy)phenyl)ethynyl)phenyl)urea] registered an IC50 in data set [1] of 160 nM. Besides, in data set [3] (po, 5 mg/kg), the “AUClast” value is 6770 ng·h/mL, the highest concentration (Cmax) amounted to 862 ng/mL and the “T1/2” value was determined as 3.9 h. In data set [3] (rat, plasma, iv, 1 mg/kg), the AUC(0-inf) amounted to 2160 ng·h/mL, the area under the curve AUC(0-t) is 2130 ng·h/mL, the Tmax was 0.083 h and the half-life was 4.51 h. The Vd in data set [3] (rat, plasma, iv, 1 mg/kg) was found to be 1.69 L/kg. Besides, the highest concentration (Cmax) in data set [3] (rat, plasma, iv, 1 mg/kg, read-out: Cmax) stood at 1340 ng/mL. In data set [3] (rat, plasma), this molecule had a bioavailability of 63.6%. For the same molecule, in data set [3] (rat, plasma, po, 5 mg/kg), the total exposure AUC(0-inf) turned out to be 6870 ng·h/mL and the Tmax is 4 h.
For the molecule `CC(C)(C)c1cc(NC(=O)Nc2ccc(C#Cc3ccc(OCCCN4CCC5(COC5)C4)cc3F)cc2)no1` [Example 8, 1-(4-((4-(3-(2-Oxa-6-azaspiro[3.4]octan-6-yl)propoxy)-2-fluorophenyl)ethynyl)phenyl)-3-(5-(tert-butyl)isoxazol-3-yl)urea], the IC50 is 61 nM in data set [1] and 3.4 nM in data set [2].
In data set [1], `CC(C)(C)c1cc(NC(=O)Nc2ccc(C#Cc3ccc(OCCN4CCOCC4)cc3)cc2)no1` [Example 25, 1-(5-(tert-Butyl)isoxazol-3-yl)-3-(4-((4-(2-morpholinoethoxy)phenyl)ethynyl)phenyl)urea] returned a concentration for half-maximal inhibition (IC50) of 84 nM.
On the same count and under the same terms, in the case of `CC(C)(C)c1cc(NC(=O)Nc2ccc(C#Cc3cnn4c(OCCCN5CCOCC5)ccnc34)cc2)no1` [Example 15, 1-(5-(tert-Butyl)isoxazol-3-yl)-3-(4-((7-(3-morpholinopropoxy)pyrazolo[1,5-a]pyrimidin-3-yl)ethynyl)phenyl)urea] it was 102 nM; in that of `CC(C)(C)c1cc(NC(=O)Nc2ccc(C#Cc3ccc(OCCCN4C[C@@H]5OCCO[C@@H]5C4)cc3)cc2)no1` [Example 11, 1-(5-(tert-butyl)isoxazol-3-yl)-3-(4-((4-(3-((4aR,7aS)-tetrahydro-2H-[1,4]dioxino[2,3-c]pyrrol-6(3H)-yl)propoxy)phenyl)ethynyl)phenyl)urea], 169 nM.
The molecule `CC(C)(C)c1cc(NC(=O)Nc2ccc(C#Cc3ccc(OCCCN4CCOCC4)cc3F)cc2)no1` [Example 4, 1-(5-(tert-Butyl)isoxazol-3-yl)-3-(4-((2-fluoro-4-(3-morpholinopropoxy)phenyl)ethynyl)phenyl) urea] yielded a half-inhibitory concentration (IC50) in data set [1] of 39 nM. The same molecule showed a half-inhibitory concentration (IC50) in data set [2] of 5.2 nM. Moreover, the “T1/2” value in data set [3] (po, 5 mg/kg) amounted to 5.86 h. In data set [3] (rat, plasma, iv, 2 mg/kg), the area under the curve AUC(0-inf) was found to be 6940 ng·h/mL, the AUC(0-t) worked out at 6570 ng·h/mL, the Tmax is 0.08 h and the half-life is 6.23 h. Also, the Vd in data set [3] (rat, plasma, iv, 2 mg/kg) is 1.83 L/kg. In addition, in data set [3] (rat, plasma, iv, 2 mg/kg, read-out: Cmax), the Cmax was 2690 ng/mL. The same molecule returned a bioavailability in data set [3] (rat, plasma) of 69.3%. In addition, in data set [3] (rat, plasma, po, 5 mg/kg), the AUC(0-inf) amounted to 12000 ng·h/mL, the AUC(0-t) amounted to 11300 ng·h/mL and the time of peak concentration (Tmax) is 2.67 h. Besides, the Cmax in data set [3] (rat, plasma, po, 5 mg/kg, read-out: Cmax) worked out at 1370 ng/mL.
